Assay: Growth (height percentile) and BMI vs external comparators
Assay type: in vivo, human
Method: As with the CINRG DNHS comparators, group-matching criteria were prespecified in the iSAP, and 2 independent statisticians carried out the participant matching. […] There was no corresponding 12-month assessment in vamorolone-treated participants. (Assessments of vamorolone-treated trial participants were 0, 3, 6, and 18 months).
Standing height and weight were assessed at each study visit. Height z-score, body mass index (BMI; kg/m^2), and BMI z-score were calculated centrally. AE reporting was done per protocol in the vamorolone trials.
The current study is the first to evaluate the longer-term tolerability, efficacy, and safety of vamorolone in DMD. […] Given the variable timing of dose escalations, it was prespecified that initial analyses of drug-related efficacy and safety would be limited to those participants who had 18 months of treatment with 2.0 mg/kg/day vamorolone or more (dose group C+dose group D; n=23). Outcomes for these participants were compared to a group-matched cohort from the CINRG DNHS over 18 months (corticosteroid-naïve, n=19; corticosteroid-treated, n=68). Participants were matched for age and treatment period (±1 month), matching criteria were prespecified in the statistical analysis plan. Two independent statisticians carried out the matching.
Participants in the corticosteroid-treated CINRG DNHS group were treated for at least 18 months, but the total duration, dose, and regimens varied.

[1] = vamorolone 18 months vs prednisone trial 12 months
[2] = vamorolone vs corticosteroid-naïve DNHS, 18 months
[3] = vamorolone vs corticosteroid-treated DNHS, 18 months

C[C@@H]1C[C@H]2[C@@H]3CCC4=CC(=O)C=C[C@]4(C)C3=CC[C@]2(C)[C@@]1(O)C(=O)CO [Vamorolone, 17α,21-dihydroxy-16α-methylpregna-1,4,9(11)-triene-3,20-dione]
Mean BMI z-score, 18-month value (SD) (18 months of treatment): 1.46 (0.62) | Mean BMI z-score, change from baseline (SD) (18 months of treatment): 0.411 (0.615) | Mean height percentile for age, 18-month value (SD) (18 months of treatment): 35.24 (29.82) | Mean BMI z-score, change from baseline (SD) (18 months of treatment, listed as vamorolone): 0.41 | LS Mean change in height percentiles for age (DMD children, 18 months treatment): +6.9 | Mean BMI z-score, baseline value (SD) (baseline of 18-month period): 1.03 (0.56) | Mean height percentile for age, baseline value (SD) (baseline of 18-month period): 29.19 (24.66) | Mean BMI z-score, baseline value (SD) (baseline of 18-month period, listed as vamorolone): 1.03 | BMI change from baseline to 18 months (original dose group B (0.75 mg/kg/day, escalated)): 0.5 kg/m^2 | BMI change from baseline to 18 months (original dose group C (2.0 mg/kg/day)): 1.11 kg/m^2 | BMI change from baseline to 18 months (original dose group D (6.0 mg/kg/day)): 2.55 kg/m^2 | Mean BMI z-score, LS mean difference (SE) [1]: 0.066 (0.193) | Mean height percentile for age, LS mean difference (SE) [1]: 10.37 (3.86) | Mean height percentile for age, LS mean difference (SE) (vamorolone 18 months vs prednisone trial 12 months, listed as vamorolone): 10.37 | Mean BMI z-score, LS mean difference (SE) [2]: 0.899 (0.204) | Mean height percentile for age, LS mean difference (SE) [2]: 6.72 (3.48) | Mean BMI z-score, LS mean difference (SE) [3]: 0.282 (0.146) | Mean height percentile for age, LS mean difference (SE) [3]: 15.86 (3.70) | Mean height percentile for age, LS mean difference (SE) (vamorolone vs corticosteroid-treated DNHS, 18 months, listed as vamorolone): 15.86

Reference: patent US20240299416A1, “TREATMENT OF NF-kB-MEDIATED DISEASE” (ReveraGen BioPharma, Inc., priority 2021, published 2024)
